From PubChem BioAssay AID1963964 (Molecular Pharmacology Branch, DTP, NCI, 2024)

Tested on: 997726-040-R-J2-PDC tumor spheroids, viability
Assay: Anticancer human tumor 997726-040-R-J2-PDC patient-derived squamous cell lung carcinoma cell line growth inhibition [PI3K]
Conditions: spheroids with HUVEC and MSC; for viability, T/C: stronger effect = lower value
In short: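 Multi-cell spheroids combine tumor cells with HUVEC and human MSCs, treated with targeted agents alone or with inavolisib, alpelisib, duvelisib or copanlisib. Concentrations fall in half-log steps from at or near clinical Cmax, or from 10 microM where Cmax is unknown; viability read-out.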

[1] = curve of first compound, second compound 0.0316 µM
[2] = curve of first compound, second compound 0.1 µM
[3] = curve of first compound, second compound 0.316 µM
[4] = curve of first compound, second compound 1 µM
[5] = curve of first compound, second compound 3.16 µM
[6] = curve of first compound, second compound 10 µM
[7] = second compound 0.0316 µM, first compound 0.0316 µM
[8] = second compound 0.0316 µM, first compound 0.1 µM
[9] = second compound 0.0316 µM, first compound 0.316 µM
[10] = second compound 0.0316 µM, first compound 1 µM
[11] = second compound 0.0316 µM, first compound 3.16 µM
[12] = second compound 0.0316 µM, first compound 10 µM
[13] = second compound 0.1 µM, first compound 0.0316 µM
[14] = second compound 0.1 µM, first compound 0.1 µM
[15] = second compound 0.1 µM, first compound 0.316 µM
[16] = second compound 0.1 µM, first compound 1 µM
[17] = second compound 0.1 µM, first compound 3.16 µM
[18] = second compound 0.1 µM, first compound 10 µM
[19] = second compound 0.316 µM, first compound 0.0316 µM
[20] = second compound 0.316 µM, first compound 0.1 µM
[21] = second compound 0.316 µM, first compound 0.316 µM
[22] = second compound 0.316 µM, first compound 1 µM
[23] = second compound 0.316 µM, first compound 3.16 µM
[24] = second compound 0.316 µM, first compound 10 µM
[25] = second compound 1 µM, first compound 0.0316 µM
[26] = second compound 1 µM, first compound 0.1 µM
[27] = second compound 1 µM, first compound 0.316 µM
[28] = second compound 1 µM, first compound 1 µM
[29] = second compound 1 µM, first compound 3.16 µM
[30] = second compound 1 µM, first compound 10 µM
[31] = second compound 3.16 µM, first compound 0.0316 µM
[32] = second compound 3.16 µM, first compound 0.1 µM
[33] = second compound 3.16 µM, first compound 0.316 µM
[34] = second compound 3.16 µM, first compound 1 µM
[35] = second compound 3.16 µM, first compound 3.16 µM
[36] = second compound 3.16 µM, first compound 10 µM
[37] = second compound 10 µM, first compound 0.0316 µM
[38] = second compound 10 µM, first compound 0.1 µM
[39] = second compound 10 µM, first compound 0.316 µM
[40] = second compound 10 µM, first compound 1 µM
[41] = second compound 10 µM, first compound 3.16 µM
[42] = second compound 10 µM, first compound 10 µM
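Note: spheroids exposed to compounds for seven days before readout.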

## C#Cc1c(F)ccc2cc(O)cc(-c3ncc4c(N5CC6CCC(C5)N6)nc(OCC56CCCN5CC(F)C6)nc4c3F)c12 (configuration not stated) + CC(Nc1ncnc2nc[nH]c12)c1cc2cccc(Cl)c2c(=O)n1-c1ccccc1
[1]
  IC50: > 10 µM
[2]
  IC50: > 10 µM
[3]
  IC50: > 10 µM
[4]
  IC50: > 10 µM
[5]
  IC50: > 10 µM
[6]
  IC50: < 0.0316 µM
[7]
  viability, T/C: 90.6%
[8]
  viability, T/C: 99.3%
[9]
  viability, T/C: 101%
[10]
  viability, T/C: 85.7%
[11]
  viability, T/C: 88.1%
[12]
  viability, T/C: 96%
[13]
  viability, T/C: 101%
[14]
  viability, T/C: 96.5%
[15]
  viability, T/C: 83.3%
[16]
  viability, T/C: 97.6%
[17]
  viability, T/C: 82.1%
[18]
  viability, T/C: 73.3%
[19]
  viability, T/C: 97.1%
[20]
  viability, T/C: 103%
[21]
  viability, T/C: 98%
[22]
  viability, T/C: 94%
[23]
  viability, T/C: 95.7%
[24]
  viability, T/C: 61.5%
[25]
  viability, T/C: 87.3%
[26]
  viability, T/C: 93.8%
[27]
  viability, T/C: 82.7%
[28]
  viability, T/C: 84.6%
[29]
  viability, T/C: 79.9%
[30]
  viability, T/C: 63.5%
[31]
  viability, T/C: 71.6%
[32]
  viability, T/C: 68.3%
[33]
  viability, T/C: 61.4%
[34]
  viability, T/C: 72.3%
[35]
  viability, T/C: 65.3%
[36]
  viability, T/C: 57.7%
[37]
  viability, T/C: 49.1%
[38]
  viability, T/C: 50.1%
[39]
  viability, T/C: 45.3%
[40]
  viability, T/C: 45.5%
[41]
  viability, T/C: 39.1%
[42]
  viability, T/C: 35.1%

## CC(C)NCC(C(=O)N1CCN(c2ncnc3c2C(C)CC3O)CC1)c1ccc(Cl)cc1 (configuration not stated) + COc1c(OCCCN2CCOCC2)ccc2c3n(c(=NC(=O)c4cnc(N)nc4)nc12)CCN3
Curve of first compound, second compound 0.00316 µM
  IC50: 0.19 µM
Curve of first compound, second compound 0.01 µM
  IC50: 0.0798 µM
[1]
  IC50: < 0.0316 µM
[2]
  IC50: < 0.0316 µM
[3]
  IC50: < 0.0316 µM
[4]
  IC50: < 0.0316 µM
Second compound 0.00316 µM, first compound 0.0316 µM
  viability, T/C: 67.1%
Second compound 0.00316 µM, first compound 0.1 µM
  viability, T/C: 55.3%
Second compound 0.00316 µM, first compound 0.316 µM
  viability, T/C: 46%
Second compound 0.00316 µM, first compound 1 µM
  viability, T/C: 29.1%
Second compound 0.00316 µM, first compound 3.16 µM
  viability, T/C: 15.7%
Second compound 0.00316 µM, first compound 10 µM
  viability, T/C: 9.1%
Second compound 0.01 µM, first compound 0.0316 µM
  viability, T/C: 51.6%
Second compound 0.01 µM, first compound 0.1 µM
  viability, T/C: 49.6%
Second compound 0.01 µM, first compound 0.316 µM
  viability, T/C: 42.8%
Second compound 0.01 µM, first compound 1 µM
  viability, T/C: 27%
Second compound 0.01 µM, first compound 3.16 µM
  viability, T/C: 16.8%
Second compound 0.01 µM, first compound 10 µM
  viability, T/C: 9.46%
[7]
  viability, T/C: 36.4%
[8]
  viability, T/C: 33.1%
[9]
  viability, T/C: 27%
[10]
  viability, T/C: 22.3%
[11]
  viability, T/C: 13.3%
[12]
  viability, T/C: 7.3%
[13]
  viability, T/C: 19.4%
[14]
  viability, T/C: 17.6%
[15]
  viability, T/C: 18.9%
[16]
  viability, T/C: 14.4%
[17]
  viability, T/C: 8.93%
[18]
  viability, T/C: 5.81%
[19]
  viability, T/C: 6.3%
[20]
  viability, T/C: 5.44%
[21]
  viability, T/C: 4.27%
[22]
  viability, T/C: 3.76%
[23]
  viability, T/C: 3.51%
[24]
  viability, T/C: 2.65%
[25]
  viability, T/C: 1.14%
[26]
  viability, T/C: 1.32%
[27]
  viability, T/C: 1.04%
[28]
  viability, T/C: 1.33%
[29]
  viability, T/C: 2.38%
[30]
  viability, T/C: 1.22%

## CCN1CCN(Cc2ccc(Nc3ncc(F)c(-c4cc(F)c5nc(C)n(C(C)C)c5c4)n3)nc2)CC1
Compound 0.00316 µM
  viability, T/C: 94% [middle of 4 runs]
Compound 0.01 µM
  viability, T/C: 88.4% [middle of 4 runs]
Compound 0.0316 µM
  viability, T/C: 74.3% [middle of 4 runs]
Compound 0.1 µM
  viability, T/C: 64.8% [middle of 4 runs]
Compound 0.316 µM
  viability, T/C: 68.5% [middle of 4 runs]
Curve of compound
  IC50: > 1 µM

## Cn1ncc(Cl)c1-c1cc(C(=O)NC(CN)Cc2cccc(F)c2)sc1Cl (configuration not stated) + CC(Nc1ncnc2nc[nH]c12)c1cc2cccc(Cl)c2c(=O)n1-c1ccccc1
[1]
  IC50: 0.112 µM
[2]
  IC50: 0.118 µM
[3]
  IC50: 0.113 µM
[4]
  IC50: 0.128 µM
[5]
  IC50: 0.0769 µM
[6]
  IC50: 0.0363 µM
[7]
  viability, T/C: 79.2%
[8]
  viability, T/C: 52.6%
[9]
  viability, T/C: 26.7%
[10]
  viability, T/C: 16.1%
[11]
  viability, T/C: 9.99%
[12]
  viability, T/C: 12.3%
[13]
  viability, T/C: 71.1%
[14]
  viability, T/C: 52.8%
[15]
  viability, T/C: 30.5%
[16]
  viability, T/C: 14.9%
[17]
  viability, T/C: 10.7%
[18]
  viability, T/C: 12.4%
[19]
  viability, T/C: 78.2%
[20]
  viability, T/C: 52.8%
[21]
  viability, T/C: 26.3%
[22]
  viability, T/C: 16%
[23]
  viability, T/C: 11.8%
[24]
  viability, T/C: 13.8%
[25]
  viability, T/C: 72.7%
[26]
  viability, T/C: 56.5%
[27]
  viability, T/C: 26.7%
[28]
  viability, T/C: 16.8%
[29]
  viability, T/C: 12.7%
[30]
  viability, T/C: 12.7%
[31]
  viability, T/C: 66.1%
[32]
  viability, T/C: 44.6%
[33]
  viability, T/C: 27.8%
[34]
  viability, T/C: 15.2%
[35]
  viability, T/C: 12.2%
[36]
  viability, T/C: 12.8%
[37]
  viability, T/C: 51.5%
[38]
  viability, T/C: 38.8%
[39]
  viability, T/C: 21.2%
[40]
  viability, T/C: 13.3%
[41]
  viability, T/C: 10%
[42]
  viability, T/C: 9.74%
